# Assay results as given in ChEMBL document CHEMBL5365420, “Kinetics, Thermodynamics, and Structural Effects of Quinoline-2-Carboxylates, Zinc-Binding Inhibitors of New Delhi Metallo-β-lactamase-1 Re-sensitizing Multidrug-Resistant Bacteria for Carbapenems” (J Med Chem, 2023).
# Assays:
# [1] = Selectivity ratio of Ki for human recombinant MMP-2 CD to Ki for C-terminal 6His-tagged full length NDM-1 (unknown origin)
# [2] = target: Metallo-beta-lactamase type 2 (Bacteria) (UniProt C7C422)
# Description: Binding affinity to C-terminal 6His-tagged full length truncated NDM-1 (unknown origin) expressed in Escherichia coli BL21-DE3 assessed as change in entropy by isothermal titration calorimetric analysis
# [3] = test system: Acinetobacter baumannii; assay: Antibacterial activity against clinical isolate Acinetobacter baumannii IC 19/09 expressing blaNDM-1 co-expressing blaOXA-64 assessed as meropenem MIC at 36.44 uM measured after 20 hrs by broth microdilution assay (reference value: 12 mg/L); assay type: functional
# [4] = target: Metallo-beta-lactamase type 2 (Bacteria) (UniProt C7C422); remark: listed apart in the source
# Description: Binding affinity to C-terminal 6His-tagged full length truncated NDM-1 (unknown origin) expressed in Escherichia coli BL21-DE3 assessed as change in enthalpy in presence of EDTA by isothermal titration calorimetric analysis
# [5] = test system: Escherichia coli; assay: Antibacterial activity against clinical isolate Escherichia coli K12 J53-ST10 684/18 expressing blaNDM-1 co-expressing blaCMY-2 and blaOXA-10 assessed as meropenem MIC at 72.88 uM measured after 20 hrs by broth microdilution assay (reference value: 24 mg/L); assay type: functional
# [6] = test system: Klebsiella pneumoniae; assay: Antibacterial activity against clinical isolate Klebsiella pneumoniae ST1493/10 expressing blaNDM-1 co-expressing blaCMY-2like/blaTEM-1/blaCTX-M-15/blaSHV-28/blaOXA-1 and blaOXA-9 assessed as meropenem MIC at 36.44 uM measured after 20 hrs by broth microdilution assay (reference value: 12 mg/L); assay type: functional
# [7] = test system: Acinetobacter baumannii; assay: Antibacterial activity against clinical isolate Acinetobacter baumannii IC 19/09 expressing blaNDM-1 co-expressing blaOXA-64 assessed as meropenem MIC at 72.88 uM measured after 20 hrs by broth microdilution assay (reference value: 24 mg/L); assay type: functional
# [8] = Inhibition of GIM1 (unknown origin) incubated for 15 mins by absorbance based microplate reader analysis; design: species or system Bacteria
# [9] = target: T1, 72 kDa type IV collagenase (Homo sapiens, UniProt P08253); assay: Binding affinity to human recombinant MMP-2 CD assessed as inhibition constant using OMNIMMP as substrate incubated for 30 mins by fluorescence based analysis
# Target sequence in this assay (P08253 whole entry): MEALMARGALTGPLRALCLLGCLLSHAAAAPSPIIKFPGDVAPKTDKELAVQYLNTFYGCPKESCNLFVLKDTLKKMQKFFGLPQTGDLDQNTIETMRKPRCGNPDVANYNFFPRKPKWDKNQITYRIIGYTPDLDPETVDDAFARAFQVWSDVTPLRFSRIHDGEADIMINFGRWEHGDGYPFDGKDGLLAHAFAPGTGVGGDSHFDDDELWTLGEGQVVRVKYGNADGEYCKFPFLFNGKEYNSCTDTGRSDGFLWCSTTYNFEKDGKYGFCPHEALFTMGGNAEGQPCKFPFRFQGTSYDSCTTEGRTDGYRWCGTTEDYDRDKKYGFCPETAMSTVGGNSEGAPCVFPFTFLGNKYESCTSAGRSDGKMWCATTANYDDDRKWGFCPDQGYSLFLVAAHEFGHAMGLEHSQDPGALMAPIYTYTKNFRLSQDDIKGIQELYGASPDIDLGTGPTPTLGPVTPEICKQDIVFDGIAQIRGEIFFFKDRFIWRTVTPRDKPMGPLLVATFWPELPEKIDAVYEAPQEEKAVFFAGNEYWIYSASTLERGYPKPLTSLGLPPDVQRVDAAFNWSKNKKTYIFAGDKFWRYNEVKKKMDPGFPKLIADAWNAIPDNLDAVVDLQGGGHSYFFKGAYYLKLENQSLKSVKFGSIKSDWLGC
# [10] = test system: Klebsiella pneumoniae; assay: Antibacterial activity against clinical isolate Klebsiella pneumoniae 50/11 expressing blaNDM-1 co-expressing blaTEM-1/blaSHV-28/blaTEM-1/blaCTX-M-15 and blaOXA-1 assessed as meropenem MIC at 36.44 uM measured after 20 hrs by broth microdilution assay (reference value: 12 mg/L); assay type: functional
# [11] = test system: Escherichia coli; assay: Antibacterial activity against clinical isolate Escherichia coli K12 J53-ST10 696/17 expressing blaNDM-1 co-expressing blaCMY-4 assessed as meropenem MIC at 72.88 uM measured after 20 hrs by broth microdilution assay (reference value: 24 mg/L); assay type: functional
# [12] = target: Metallo-beta-lactamase type 2 (Bacteria) (UniProt C7C422); remark: listed apart in the source
# [13] = test system: Escherichia coli; assay: Antibacterial activity against clinical isolate Escherichia coli K12 J53-ST10 618/15 expressing blaNDM-1 assessed as meropenem MIC at 72.88 uM measured after 20 hrs by broth microdilution assay (reference value: 24 mg/L); assay type: functional
# [14] = target: T1, 72 kDa type IV collagenase; assay: Inhibition of human recombinant MMP-2 CD at 10 uM using OMNIMMP as substrate incubated for 30 mins by fluorescence based analysis relative to control
# Target sequence in this assay (P08253 110-660 limits assumed): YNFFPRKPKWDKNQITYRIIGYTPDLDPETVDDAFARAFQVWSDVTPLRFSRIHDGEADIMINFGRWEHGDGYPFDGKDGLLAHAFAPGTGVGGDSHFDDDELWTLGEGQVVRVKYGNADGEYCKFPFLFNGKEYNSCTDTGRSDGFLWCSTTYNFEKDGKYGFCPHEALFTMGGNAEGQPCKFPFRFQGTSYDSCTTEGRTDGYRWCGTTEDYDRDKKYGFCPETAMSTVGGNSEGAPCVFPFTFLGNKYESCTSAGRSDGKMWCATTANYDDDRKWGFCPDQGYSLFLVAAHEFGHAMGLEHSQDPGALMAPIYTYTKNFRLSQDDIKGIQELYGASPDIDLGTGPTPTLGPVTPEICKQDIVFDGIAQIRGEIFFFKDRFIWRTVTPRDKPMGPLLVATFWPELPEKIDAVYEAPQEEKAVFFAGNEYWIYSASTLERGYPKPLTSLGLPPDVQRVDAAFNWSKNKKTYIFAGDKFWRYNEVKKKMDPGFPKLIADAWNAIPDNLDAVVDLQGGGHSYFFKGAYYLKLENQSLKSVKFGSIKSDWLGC
# [15] = test system: Klebsiella pneumoniae; assay: Antibacterial activity against clinical isolate Klebsiella pneumoniae ST23213/19 expressing blaNDM-1 co-expressing blaOXA-48/blaSHV-11/blaCTX-M-15 and blaOXA-1 assessed as meropenem MIC at 36.44 uM measured after 20 hrs by broth microdilution assay (reference value: 12 mg/L); assay type: functional
# [16] = target: Metallo-beta-lactamase type 2 (Bacteria) (UniProt C7C422); remark: listed apart in the source
# Description: Binding affinity to C-terminal 6His-tagged full length truncated NDM-1 (unknown origin) expressed in Escherichia coli BL21-DE3 assessed as change in enthalpy by isothermal titration calorimetric analysis
# [17] = target: T2, Metallo-beta-lactamase type 2 (Bacteria, UniProt C7C422)
# Description: Binding affinity to C-terminal 6His-tagged full length biotin-labeled NDM-1 (unknown origin) expressed in Escherichia coli BL21-DE3 assessed as dissociation constant by BLI assay
# [18] = target: Metallo-beta-lactamase type 2 (Bacteria) (UniProt C7C422); remark: listed apart in the source
# Description: Binding affinity to C-terminal 6His-tagged full length truncated NDM-1 (unknown origin) expressed in Escherichia coli BL21-DE3 assessed as change in enthalpy in presence of zinc sulfate by isothermal titration calorimetric analysis
# [19] = test system: Klebsiella pneumoniae; assay: Antibacterial activity against clinical isolate Klebsiella pneumoniae 50/20 expressing blaNDM-5 co-expressing blaTEM-1 and blaSHV-1 assessed as meropenem MIC at 36.44 uM measured after 20 hrs by broth microdilution assay (reference value: 12 mg/L); assay type: functional
# [20] = target: T2, Metallo-beta-lactamase type 2; remark: listed apart in the source
# Description: Binding affinity to C-terminal 6His-tagged full length truncated NDM-1 (unknown origin) expressed in Escherichia coli BL21-DE3 assessed as dissociation constant by isothermal titration calorimetric analysis
# [21] = test system: Klebsiella pneumoniae; assay: Antibacterial activity against clinical isolate Klebsiella pneumoniae 62/07 expressing blaVIM-19 co-expressing blaSHV-1/blaCTX-M-14 and blaCMY-4 assessed as meropenem MIC at 72.88 uM measured after 20 hrs by broth microdilution assay (reference value: 24 mg/L); assay type: functional
# [22] = target: Metallo-beta-lactamase type 2 (Bacteria) (UniProt C7C422); remark: listed apart in the source
# Description: Binding affinity to C-terminal 6His-tagged full length truncated NDM-1 (unknown origin) expressed in Escherichia coli BL21-DE3 assessed as change in Gibbs free energy by isothermal titration calorimetric analysis
# [23] = target: Carbonic anhydrase 2 (Homo sapiens) (UniProt P00918); assay: Inhibition of human CA2 at 10 uM using pNPA as substrate preincubated for 15 mins followed by substrate by absorbance based analysis relative to control
# [24] = test system: Escherichia coli; assay: Antibacterial activity against clinical isolate Escherichia coli K12 J53-ST10 684/18 expressing blaNDM-1 co-expressing blaCMY-2 and blaOXA-10 assessed as meropenem MIC at 36.44 uM measured after 20 hrs by broth microdilution assay (reference value: 12 mg/L); assay type: functional
# [25] = test system: Klebsiella pneumoniae; assay: Antibacterial activity against clinical isolate Klebsiella pneumoniae 62/07 expressing blaVIM-19 co-expressing blaSHV-1/blaCTX-M-14 and blaCMY-4 assessed as meropenem MIC at 36.44 uM measured after 20 hrs by broth microdilution assay (reference value: 12 mg/L); assay type: functional
# [26] = target: Histone deacetylase 1 (Homo sapiens) (UniProt Q13547); assay: Inhibition of C-terminal 6His/FLAG-tagged human recombinant full-length HDAC1 (1 to 482(end) residues) at 10 uM using Boc-Lys-(Ac)-AMC as substrate incubated for 10 mins followed by substrate addition measured after 1 hr by fluorescence based analysis relative to control; conditions: time 70.0 min
# [27] = test system: Klebsiella pneumoniae; assay: Antibacterial activity against clinical isolate Klebsiella pneumoniae ST1493/10 expressing blaNDM-1 co-expressing blaCMY-2like/blaTEM-1/blaCTX-M-15/blaSHV-28/blaOXA-1 and blaOXA-9 assessed as meropenem MIC at 72.88 uM measured after 20 hrs by broth microdilution assay (reference value: 24 mg/L); assay type: functional
# [28] = test system: Klebsiella pneumoniae; assay: Antibacterial activity against clinical isolate Klebsiella pneumoniae 50/20 expressing blaNDM-5 co-expressing blaTEM-1 and blaSHV-1 assessed as meropenem MIC at 72.88 uM measured after 20 hrs by broth microdilution assay (reference value: 24 mg/L); assay type: functional
# [29] = test system: Escherichia coli; assay: Antibacterial activity against clinical isolate Escherichia coli K12 J53-ST10 699/15 expressing blaNDM-1 assessed as meropenem MIC at 36.44 uM measured after 20 hrs by broth microdilution assay (reference value: 12 mg/L); assay type: functional
# [30] = test system: Escherichia coli; assay: Antibacterial activity against clinical isolate Escherichia coli K12 J53-ST10 699/15 expressing blaNDM-1 assessed as meropenem MIC at 72.88 uM measured after 20 hrs by broth microdilution assay (reference value: 24 mg/L); assay type: functional
# Metallo-beta-lactamase type 2 (Bacteria), sequence (C7C422 whole entry): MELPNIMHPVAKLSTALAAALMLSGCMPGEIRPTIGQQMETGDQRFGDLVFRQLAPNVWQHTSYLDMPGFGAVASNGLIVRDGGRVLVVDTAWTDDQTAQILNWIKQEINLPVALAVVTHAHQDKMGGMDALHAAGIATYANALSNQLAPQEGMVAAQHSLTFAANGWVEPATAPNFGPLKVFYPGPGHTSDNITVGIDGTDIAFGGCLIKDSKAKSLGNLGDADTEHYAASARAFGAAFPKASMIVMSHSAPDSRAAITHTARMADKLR
# T2 sequence (C7C422 whole entry): as above
# Histone deacetylase 1 (Homo sapiens), sequence (Q13547 whole entry): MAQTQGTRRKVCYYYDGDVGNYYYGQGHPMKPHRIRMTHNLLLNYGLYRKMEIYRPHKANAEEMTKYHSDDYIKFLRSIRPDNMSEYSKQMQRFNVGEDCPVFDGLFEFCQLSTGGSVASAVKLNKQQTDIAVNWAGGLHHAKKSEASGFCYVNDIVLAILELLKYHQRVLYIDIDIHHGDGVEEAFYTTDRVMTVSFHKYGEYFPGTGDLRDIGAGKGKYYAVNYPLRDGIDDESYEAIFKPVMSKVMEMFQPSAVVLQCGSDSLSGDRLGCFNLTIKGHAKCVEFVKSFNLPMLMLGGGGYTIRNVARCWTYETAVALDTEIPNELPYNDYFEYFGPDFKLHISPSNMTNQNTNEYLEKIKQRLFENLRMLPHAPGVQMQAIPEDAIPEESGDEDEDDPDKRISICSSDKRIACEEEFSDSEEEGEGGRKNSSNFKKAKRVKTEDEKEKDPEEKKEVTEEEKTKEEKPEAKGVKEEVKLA
smiles,measurement,setting,value
O=C(O)c1ccc2cccc(NS(=O)(=O)c3ccccn3)c2n1,Ratio Ki,[1],40
same,-TdeltaS,[2],-2.92 kcal/mol
same,MIC,[3],4 µg/mL
same,deltaH,[4],-9.56 kcal/mol
same,MIC,[5],≤ 0.125 µg/mL
same,MIC,[6],2 µg/mL
same,MIC,[7],1 µg/mL
same,IC50,[8],0.65 µM
same,Ki,[9],5.78 µM
same,MIC,[10],≤ 0.125 µg/mL
same,MIC,[11],≤ 0.125 µg/mL
same,ΔTm,[12],15 °C
same,MIC,[13],≤ 0.125 µg/mL
same,inhibition,[14],> 90%
same,MIC,[15],16 µg/mL
same,deltaH,[16],-6.6 kcal/mol
same,Kd,[17],14.1 µM
same,deltaH,[18],-26.5 kcal/mol
same,MIC,[19],0.5 µg/mL
same,Kd,[20],0.105 µM
same,MIC,[21],0.25 µg/mL
same,deltaG,[22],-9.54 kcal/mol
same,inhibition,[23],< 5%
same,MIC,[24],≤ 0.125 µg/mL
same,MIC,[25],2 µg/mL
same,inhibition,[26],< 5%
same,MIC,[27],1 µg/mL
same,MIC,[28],≤ 0.125 µg/mL
same,MIC,[29],0.5 µg/mL
same,MIC,[30],≤ 0.125 µg/mL
